Data from patent US6274715A, “Tricyclic erythromycin derivatives” (priority 1997, dated 2001).
≈ marks a conversion by molar mass, not a printed value.

Assays:
Format in all cases: cell-based
[1] = test system: PROVIDENCIA STUARTII CMX 640; settings: P. stuartii CMX 640; BHI agar; unit assumed
[2] = test system: ESCHERICHIA COLI H560; test: In vitro antibacterial activity, MIC, BHI agar dilution; settings: E. coli H560, unit assumed
[3] = test system: CANDIDA ALBICANS CCH 442; test: as above; settings: C. albicans CCH 442, unit assumed
[4] = test system: STREPTOCOCCUS PYOGENES EES61; test: as above; settings: S. pyogenes EES61, unit assumed
[5] = test system: STAPHYLOCOCCUS AUREUS NCTC10649M; test: as above; settings: S. aureus NCTC10649M, unit assumed
[6] = test system: STAPHYLOCOCCUS AUREUS ATCC 6538P; test: as above; settings: S. aureus ATCC 6538P, 35-37° C., 20 to 24 hours, unit assumed
[7] = test system: KLEBSIELLA PNEUMONIAE ATCC 8045; test: as above; settings: K. pneumoniae ATCC 8045, unit assumed
[8] = test system: EN[…] ATCC 8043; test: as above; settings: E. faecium ATCC 8043, unit assumed
Summary of the method: (§1)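 MIC was read visually as the lowest drug concentration showing no growth, a slight haze or sparsely isolated colonies relative to a compound-free BHI plate. Plates held serial aqueous dilutions in BHI agar, were spot-inoculated with 1:100 (or 1:10) culture dilutions and incubated 20 to 24 hours at 35-37° C.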

[9] = test system: M[…] ATCC 4698; test: as above; settings: M. luteus ATCC 4698, unit assumed
Summary of the method: as §1

[10] = test system: M[…] ATCC 9341; test: as above; settings: M. luteus ATCC 9341, unit assumed
Summary of the method: as §1

[11] = test system: STR[…] 508; test: as above; settings: S. agalactiae CMX 508, unit assumed
Summary of the method: as §1

[12] = test system: STAPHYLOCOCCUS AUREUS 1775; test: as above; settings: S. aureus 1775, unit assumed
[13] = test system: ESCHERICHIA COLI DC-2; test: as above; settings: E. coli DC-2, unit assumed
[14] = test system: MYCOBACTERIUM SMEGMATIS ATCC 114; test: as above; settings: M. smegmatis ATCC 114, unit assumed
[15] = test system: STAPHYLOCOCCUS AUREUS CMX 553; test: as above; settings: S. aureus CMX 553, unit assumed
[16] = test system: STREPTOCOCCUS BOVIS A-5169; test: as above; settings: S. bovis A-5169, unit assumed
[17] = test system: ENTEROBACTER AEROGENES ATCC 13048; test: as above; settings: E. aerogenes ATCC 13048, unit assumed
[18] = test system: STREPTOCOCCUS PYOGENES 930; test: as above; settings: S. pyogenes 930, unit assumed
[19] = test system: PSEUDOMONAS CEPACIA 296I; test: as above; settings: P. cepacia 296I, unit assumed
[20] = test system: ESCHERICHIA COLI KNK 437; settings: E. coli KNK 437; BHI agar; unit assumed
[21] = test system: PSEUDOMONAS AERUGINOSA K799/61; test: In vitro antibacterial activity, MIC, BHI agar dilution; settings: P. aeruginosa K799/61, unit assumed
[22] = test system: ESCHERICHIA COLI SS; test: as above; settings: E. coli SS, unit assumed
[23] = test system: PSEUDOMONAS AERUGINOSA DPHD-5263; test: as above; settings: P. aeruginosa DPHD-5263, unit assumed
[24] = test system: STAPHYLOCOCCUS AUREUS A5177; test: as above; settings: S. aureus A5177, unit assumed
[25] = test system: STREPTOCOCCUS PYOGENES PIU 2548; test: as above; settings: S. pyogenes PIU 2548, unit assumed
[26] = test system: PSEUDOMONAS AERUGINOSA K799/WT; test: as above; settings: P. aeruginosa K799/WT, unit assumed
[27] = test system: PSEUDOMONAS AERUGINOSA DPHD-2862; test: as above; settings: P. aeruginosa DPHD-2862, unit assumed
[28] = test system: ACINETOBACTER CALCOACETICUS CMX 669; test: as above; settings: A. calcoaceticus CMX 669, unit assumed
[29] = test system: STAPHYLOCOCCUS AUREUS A-5278; test: as above; settings: S. aureus A-5278, unit assumed
[30] = test system: PSEUDOMONAS AERUGINOSA BMH10; test: as above; settings: P. aeruginosa BMH10, unit assumed
[31] = test system: ESCHERICHIA COLI JUHL; settings: E. coli JUHL; BHI agar; unit assumed
[32] = test system: PSEUDOMONAS AERUGINOSA 5007; test: In vitro antibacterial activity, MIC, BHI agar dilution; settings: P. aeruginosa 5007, unit assumed
[33] = test system: STAPHYLOCOCCUS EPIDERMIDIS 3519; settings: S. epidermidis 3519; BHI agar; unit assumed
[34] = test system: STAPHYLOCOCCUS AUREUS CMX 642A; test: In vitro antibacterial activity, MIC, BHI agar dilution; settings: S. aureus CMX 642A, unit assumed

SMILES	MIC [1] [µg/mL]	MIC [2] [µg/mL]	MIC [3] [µg/mL]	MIC [4] [µg/mL]	MIC [5] [µg/mL]	MIC [6] [µg/mL]	MIC [7] [µg/mL]	MIC [8] [µg/mL]	MIC [9] [µg/mL]	MIC [10] [µg/mL]	MIC [11] [µg/mL]	MIC [12] [µg/mL]	MIC [13] [µg/mL]	MIC [14] [µg/mL]	MIC [15] [µg/mL]	MIC [16] [µg/mL]	MIC [17] [µg/mL]	MIC [18] [µg/mL]	MIC [19] [µg/mL]	MIC [20] [µg/mL]	also measured
CC[C@H]1OC(=O)[C@H](C)C(=O)[C@H](C)[C@@H](O[C@@H]2O[C@H](C)C[C@H](N(C)C)[C@H]2O)[C@](C)(OC)C[C@@H](C)C2=N[C@@H]3CN(Cc4ccc(Cl)cc4)C[C@@H]3N3C(=O)O[C@@]1(C)[C@H]3[C@H]2C [Example 24]	> 100	> 100	> 100	0.05 (≈ 0.0622 µM)	0.78 (≈ 0.971 µM)	0.78 (≈ 0.971 µM)	> 100	0.2 (≈ 0.249 µM)	0.78 (≈ 0.971 µM)	0.2 (≈ 0.249 µM)	0.2 (≈ 0.249 µM)	> 100	> 100	1.56 (≈ 1.94 µM)	0.78 (≈ 0.971 µM)	0.05 (≈ 0.0622 µM)	> 100	100 (≈ 124 µM)	> 100	> 100	MIC [21]: 6.2 µg/mL (≈ 7.72 µM); MIC [22]: 6.2 µg/mL (≈ 7.72 µM); MIC [23]: > 100 µg/mL; MIC [24]: 0.78 µg/mL (≈ 0.971 µM); MIC [25]: 0.78 µg/mL (≈ 0.971 µM); MIC [26]: > 100 µg/mL; MIC [27]: > 100 µg/mL; MIC [28]: > 100 µg/mL; MIC [29]: > 100 µg/mL; MIC [30]: > 100 µg/mL; MIC [31]: > 100 µg/mL; MIC [32]: > 100 µg/mL; MIC [33]: 0.78 µg/mL (≈ 0.971 µM); MIC [34]: 0.78 µg/mL (≈ 0.971 µM)
CC[C@H]1OC(=O)[C@H](C)C(=O)[C@H](C)[C@@H](O[C@@H]2O[C@H](C)C[C@H](N(C)C)[C@H]2O)[C@](C)(OC)C[C@@H](C)C2=N[C@H](COCCN3CCOCC3)CN3C(=O)O[C@@]1(C)[C@H]3[C@H]2C [Example 87]	> 100	> 100	> 100	0.2 (≈ 0.256 µM)	1.56 (≈ 2 µM)	1.56 (≈ 2 µM)	> 100	0.39 (≈ 0.499 µM)	1.56 (≈ 2 µM)	0.1 (≈ 0.128 µM)	0.2 (≈ 0.256 µM)	> 100	> 100	12.5 (≈ 16 µM)	1.56 (≈ 2 µM)	0.05 (≈ 0.064 µM)	> 100	> 100	> 100	> 100	MIC [21]: 3.1 µg/mL (≈ 3.97 µM); MIC [22]: 1.56 µg/mL (≈ 2 µM); MIC [23]: > 100 µg/mL; MIC [24]: 1.56 µg/mL (≈ 2 µM); MIC [25]: 3.1 µg/mL (≈ 3.97 µM); MIC [26]: > 100 µg/mL; MIC [27]: > 100 µg/mL; MIC [28]: > 100 µg/mL; MIC [29]: > 100 µg/mL; MIC [30]: > 100 µg/mL; MIC [31]: > 100 µg/mL; MIC [32]: > 100 µg/mL; MIC [33]: 1.56 µg/mL (≈ 2 µM); MIC [34]: 1.56 µg/mL (≈ 2 µM)
CC[C@H]1OC(=O)[C@H](C)C(=O)[C@H](C)[C@@H](O[C@@H]2O[C@H](C)C[C@H](N(C)C)[C@H]2O)[C@](C)(OC)C[C@@H](C)C2=NC[C@H](Cc3ccc(O)cc3)N3C(=O)O[C@@]1(C)[C@H]3[C@H]2C [Example 65]	> 100	50 (≈ 67.2 µM)	> 100	0.02 (≈ 0.0269 µM)	0.39 (≈ 0.524 µM)	0.39 (≈ 0.524 µM)	> 100	0.1 (≈ 0.134 µM)	0.39 (≈ 0.524 µM)	0.05 (≈ 0.0672 µM)	0.02 (≈ 0.0269 µM)	> 100	50 (≈ 67.2 µM)	6.2 (≈ 8.33 µM)	0.39 (≈ 0.524 µM)	0.01 (≈ 0.0134 µM)	> 100	> 100	100 (≈ 134 µM)	100 (≈ 134 µM)	MIC [21]: 0.78 µg/mL (≈ 1.05 µM); MIC [22]: 0.39 µg/mL (≈ 0.524 µM); MIC [23]: > 100 µg/mL; MIC [24]: 0.39 µg/mL (≈ 0.524 µM); MIC [25]: 1.56 µg/mL (≈ 2.1 µM); MIC [26]: > 100 µg/mL; MIC [27]: > 100 µg/mL; MIC [28]: 100 µg/mL (≈ 134 µM); MIC [29]: > 100 µg/mL; MIC [30]: > 100 µg/mL; MIC [31]: 50 µg/mL (≈ 67.2 µM); MIC [32]: > 100 µg/mL; MIC [33]: 0.39 µg/mL (≈ 0.524 µM); MIC [34]: 0.39 µg/mL (≈ 0.524 µM)
CC[C@H]1OC(=O)[C@H](C)C(=O)[C@H](C)[C@@H](O[C@@H]2O[C@H](C)C[C@H](N(C)C)[C@H]2O)[C@](C)(OC)C[C@@H](C)C2=NC3CN(CCc4ccccc4[N+](=O)[O-])CC3N3C(=O)O[C@@]1(C)[C@H]3[C@H]2C (some centres unmarked) [Example 119]	> 100	> 100	> 100	0.02 (≈ 0.0242 µM)	0.2 (≈ 0.242 µM)	0.39 (≈ 0.471 µM)	> 100	0.1 (≈ 0.121 µM)	0.39 (≈ 0.471 µM)	0.05 (≈ 0.0604 µM)	0.02 (≈ 0.0242 µM)	> 100	> 100	0.78 (≈ 0.942 µM)	0.2 (≈ 0.242 µM)	0.02 (≈ 0.0242 µM)	> 100	> 100	> 100	> 100	MIC [21]: 0.78 µg/mL (≈ 0.942 µM); MIC [22]: 0.78 µg/mL (≈ 0.942 µM); MIC [23]: > 100 µg/mL; MIC [24]: 0.39 µg/mL (≈ 0.471 µM); MIC [25]: 0.78 µg/mL (≈ 0.942 µM); MIC [26]: > 100 µg/mL; MIC [27]: > 100 µg/mL; MIC [28]: 100 µg/mL (≈ 121 µM); MIC [29]: > 100 µg/mL; MIC [30]: > 100 µg/mL; MIC [31]: 100 µg/mL (≈ 121 µM); MIC [32]: > 100 µg/mL; MIC [33]: 0.39 µg/mL (≈ 0.471 µM); MIC [34]: 0.39 µg/mL (≈ 0.471 µM)
CC[C@H]1OC(=O)[C@H](C)C(=O)[C@H](C)[C@@H](O[C@@H]2O[C@H](C)C[C@H](N(C)C)[C@H]2O)[C@](C)(OC)C[C@@H](C)C2=N[C@@H]3CN(Cc4ccncc4)C[C@@H]3N3C(=O)O[C@@]1(C)[C@H]3[C@H]2C [Example 25]	> 100	100 (≈ 130 µM)	> 100	0.05 (≈ 0.0649 µM)	0.39 (≈ 0.507 µM)	0.78 (≈ 1.01 µM)	> 100	0.1 (≈ 0.13 µM)	0.39 (≈ 0.507 µM)	0.1 (≈ 0.13 µM)	0.1 (≈ 0.13 µM)	> 100	> 100	3.1 (≈ 4.03 µM)	0.78 (≈ 1.01 µM)	0.1 (≈ 0.13 µM)	> 100	> 100	> 100	> 100	MIC [21]: 0.78 µg/mL (≈ 1.01 µM); MIC [22]: 0.78 µg/mL (≈ 1.01 µM); MIC [23]: > 100 µg/mL; MIC [24]: 0.78 µg/mL (≈ 1.01 µM); MIC [25]: 0.78 µg/mL (≈ 1.01 µM); MIC [26]: 100 µg/mL (≈ 130 µM); MIC [27]: > 100 µg/mL; MIC [28]: 100 µg/mL (≈ 130 µM); MIC [29]: > 100 µg/mL; MIC [30]: > 100 µg/mL; MIC [31]: > 100 µg/mL; MIC [32]: > 100 µg/mL; MIC [33]: 0.78 µg/mL (≈ 1.01 µM); MIC [34]: 0.78 µg/mL (≈ 1.01 µM)
